Measured values from patent US11918587B2, “Treatment of cancer with a RAF inhibitor” (Kinnate Biopharma Inc., priority 2021, dated 2024).
Like-named read-outs stand apart in the source and are kept apart here.

How the values were obtained:
[1] = plasma exposure in WM3629 BID combination study (Example 6); conditions: athymic BALB/c nude, mouse, oral, 3 mg/kg
in vivo = conditions: athymic nude, mouse, plasma, oral
[2] = plasma exposure in SK-MEL-2 xenograft study; conditions: mouse, oral
[3] = test system: WM3629 (Class III BRAF mutant) melanoma xenograft; test: WM3629 melanoma xenograft, Compound 1 with binimetinib QD (Example 3C); assay type: in vivo, mouse; conditions: 10 mg/kg QD single agent, 14 days
Excerpt: Mice were assigned to respective groups based on their starting tumor volume and body weight such that the average values were the same for each treatment group.

[4] = test system: SK-MEL-2 (NRAS Q61R mutant) melanoma xenograft; test: SK-MEL-2 melanoma xenograft, Compound 1 with binimetinib; assay type: in vivo, mouse
[5] = test system: WM3629 (NRAS mutant, Class III BRAF mutant) melanoma xenograft; test: WM3629 melanoma xenograft, compound 1 with binimetinib BID (Example 6); assay type: in vivo, mouse
pERK in HMV-II cells = test: cells
pERK in OV-90 cells = test: cells; conditions: Homo sapiens, OV-90, 1 h, read-out: pERK EC50
pERK in SK-MEL-2 cells = test: cells; conditions: Homo sapiens
[6] = test system: NCI-H2405 (Class II BRAF mutant) NSCLC xenograft
pERK in Calu-6 cells = test: cells; conditions: Homo sapiens
[7] = test system: A-375, BxPC-3, WM3629 xenografts; conditions: doses up to 60 mg/kg per day
pERK in SK-MEL-28 cells = test: cells; conditions: Homo sapiens
pERK in BxPC-3 cells = test: cells; conditions: Homo sapiens, BXPC-3, 1 h, read-out: pERK EC50
pERK in A-375 cells = test: cells; conditions: Homo sapiens, A-375, 1 h, read-out: pERK EC50
[8] = mouse, in vivo, po
Description: For routine monitoring, all study animals were monitored for not only tumor growth but also any abnormalities of behavior and appearance such as mobility, food and water consumption, body weight, eye appearance, and any other abnormal observations. Any mortality and/or abnormal clinical signs were recorded. Body weights of all animals were measured and recorded every other day throughout the study. The measurement of tumor size was conducted with calipers and recorded three times during the first week and twice weekly during the second and third weeks. The TV (mm^3) was estimated using the formula: TV=a×b^2/2, where “a” and “b” are long and short diameters of a tumor, respectively.

pERK in WM3629 cells = test: cells; conditions: Homo sapiens, WM3629, 1 h, read-out: pERK EC50
[9] = test system: SK-MEL-2 human melanoma cells; test: 7-day CellTiter-Glo growth assay with binimetinib combination and synergy analysis; assay type: cell-based; conditions: SK-MEL-2, 168 h
Description: SK-MEL-2 human melanoma cells were obtained from American Type Culture Collection and maintained in DMEM+10% FBS+1% penicillin/streptomycin. All cells were maintained in a humidified incubator at 37° C. with 5% carbon dioxide (CO2). […] Plates were removed from the incubator and equilibrated at room temperature for 15 minutes. Then, 100 μL of CellTiter-Glo (CTG) reagent was added into each well to be detected (at 1:1 to culture medium). The plates were kept at room temperature for 30 minutes followed by reading on a plate reader. […] Highest single agent (HSA), Bliss, and Loewe synergy models were assessed and utilized to find the most synergistic area score, where scores >10 indicate that the interaction between the two drugs is likely to be synergistic.

pERK in 8505C cells = test: cells; conditions: Homo sapiens
pERK in NCI-H2087 cells = test: cells; conditions: Homo sapiens
[10] = tolerability / body weight in A-375 xenograft study
Description: Mean tumor volumes and body weights are plotted, respectively; error bars denote standard error of mean. Percent change in tumor volume was calculated using the following formula: (TVf−TV0)/TV0×100%; where TVf=final tumor volume (at end of treatment) and TV0=initial tumor volume (at beginning of treatment).

pERK in HCC1195 cells = test: cells
pERK in Hs 294T cells = test: cells; conditions: Homo sapiens
pERK in MIA PaCa-2 cells = test: cells; conditions: Homo sapiens, MIA PaCa-2, 1 h, read-out: pERK EC50
pERK in CAL-12T cells = test: cells; conditions: Homo sapiens, 1 h, read-out: pERK EC50
pERK in CHL-1 cells = test: cells; conditions: Homo sapiens, CHL-1, 1 h, read-out: pERK EC50
pERK in NCI-H2405 cells = test: cells; conditions: Homo sapiens, NCI-H2405, 1 h, read-out: pERK EC50
pERK in AM-38 cells = test: cells; conditions: Homo sapiens
[11] = mouse, in vivo
[12] = test system: A-375 (Class I BRAF V600E) melanoma xenograft; conditions: 60 mg/kg QD; 8 of 9 animals
pERK in DBTRG-05MG cells = test: cells; conditions: Homo sapiens
pERK in COLO 800 cells = test: cells; conditions: Homo sapiens
[13] = plasma exposure in mice bearing BxPC-3 and WM3629 xenografts; assay type: in vivo; conditions: athymic nude, mouse, po, sulfate salt form, 24-hour period following the last dose, read-out: systemic plasma exposures (AUClast)
pERK in IHH-4 cells = test: cells
pERK in NCI-H1666 cells = test: cells; conditions: Homo sapiens
pERK in IPC-298 cells = test: cells; conditions: Homo sapiens
[14] = plasma exposure in mice bearing A-375 tumors; assay type: in vivo; conditions: athymic nude, mouse, 15-60 mg/kg PO QD, free base, 24-hour period following the last dose, read-out: systemic plasma exposures (AUClast)
pERK in SK-MEL-30 cells = test: cells; conditions: Homo sapiens
[15] = 3 mg/kg BID PO 14 days monotherapy

Q: With Cn1cnc2c(F)c(Nc3ccc(Br)cc3F)c(C(=O)NOCCO)cc21 [binimetinib, reference compound] as the compound, how does the AUC(0-t) [1] read?
A: 5400 to 5730 ng·h/mL

Q: What about the AUC(0-t) (in vivo; 10 mg/kg) of the same compound?
A: 11000 to 26700 ng·h/mL

Q: And the AUC(0-t) ([2]; 3 mg/kg)?
A: 7500 to 10100 ng·h/mL

Q: And the “inhibition of tumor growth” value [3]?
A: did not lead to significant inhibition of tumor growth

Q: What about the tumor growth inhibition ([4]; 3 mg/kg BID single agent, 28 days) of the same compound?
A: 23%

Q: And the TGI [5, 15]?
A: 37%

Q: And the ΔT/ΔC [5, 15]?
A: 63%

Q: What about the “Final Tumor Volume” value ([5]; 3 mg/kg BID PO 14 days monotherapy, mean ± SEM) of the same compound?
A: 910 ± 69 mm^3

Q: Which AUC(0-t) [1] does the source give for Cc1ccc(NC(=O)N2CC[C@@H](CC(F)(F)F)C2)cc1-c1cc(N[C@H](C)CO)nc(N2CCOCC2)c1 [Compound 1, (S)-N-(3-(2-(((R)-1-hydroxypropan-2-yl)amino)-6-morpholinopyridin-4-yl)-4-methylphenyl)-3-(2,2,2-trifluoroethyl)pyrrolidine-1-carboxamide] here?
A: 2530 to 6750 ng·h/mL

Q: What about the EC50 (pERK in HMV-II cells) of the same compound?
A: 0.0446 µM

Q: What about the AUC(0-t) (in vivo; 30 mg/kg) of the same compound?
A: 31100 to 123000 ng·h/mL

Q: And the EC50 (pERK in OV-90 cells)?
A: 0.026 µM

Q: What about the EC50 (pERK in SK-MEL-2 cells) of the same compound?
A: 0.139 µM

Q: What about the AUC(0-t) ([2]; 30 mg/kg) of the same compound?
A: 29900 to 96100 ng·h/mL

Q: What about the ΔT/ΔC ([6]; 10 mg/kg BID PO 21 days) of the same compound?
A: 15%

Q: And the ΔT/ΔC ([6]; 15 mg/kg BID PO 21 days)?
A: −7%

Q: What about the EC50 (pERK in Calu-6 cells) of the same compound?
A: 0.2 µM

Q: What about the tolerability [7] of the same compound?
A: well-tolerated

Q: And the EC50 (pERK in SK-MEL-28 cells)?
A: 0.107 µM

Q: What about the EC50 (pERK in BxPC-3 cells) of the same compound?
A: 0.0507 µM

Q: What about the EC50 (pERK in A-375 cells) of the same compound?
A: 0.0677 µM

Q: What about the tolerability [8] of the same compound?
A: well-tolerated

Q: And the EC50 (pERK in WM3629 cells)?
A: 0.0088 µM

Q: What about the EC50 ([9]; read-out: Compound 1 7-Day CTG EC50, SK-MEL-2, binimetinib 0 nM (single agent, DMSO control)) of the same compound?
A: 0.164 µM

Q: And the EC50 ([9]; read-out: Compound 1 7-Day CTG EC50, SK-MEL-2, binimetinib 2 nM)?
A: 0.108 µM

Q: And the EC50 ([9]; read-out: Compound 1 7-Day CTG EC50, SK-MEL-2, binimetinib 7.8 nM)?
A: 0.106 µM

Q: And the EC50 ([9]; read-out: Compound 1 7-Day CTG EC50, SK-MEL-2, binimetinib 31.3 nM)?
A: 0.065 µM

Q: And the EC50 ([9]; read-out: Compound 1 7-Day CTG EC50, SK-MEL-2, binimetinib 125 nM)?
A: 0.039 µM

Q: What about the EC50 ([9]; read-out: Compound 1 7-Day CTG EC50, SK-MEL-2, binimetinib 500 nM) of the same compound?
A: 0.012 µM

Q: And the EC50 (pERK in 8505C cells)?
A: 0.0771 µM

Q: What about the EC50 (pERK in NCI-H2087 cells) of the same compound?
A: 0.0954 µM

Q: What about the average weight loss ([10]; 60 mg/kg QD) of the same compound?
A: 5.6%

Q: And the “weight loss of one animal during the course of treatment” value ([10]; 60 mg/kg cohort, recovered by end of study)?
A: > 10%

Q: What about the EC50 (pERK in HCC1195 cells) of the same compound?
A: 0.0833 µM

Q: What about the EC50 (pERK in Hs 294T cells) of the same compound?
A: 0.0769 µM

Q: And the EC50 (pERK in MIA PaCa-2 cells)?
A: 0.685 µM

Q: What about the EC50 (pERK in CAL-12T cells) of the same compound?
A: 0.0184 µM

Q: What about the EC50 (pERK in CHL-1 cells) of the same compound?
A: 0.58 µM

Q: And the EC50 (pERK in NCI-H2405 cells)?
A: 0.0101 µM

Q: What about the EC50 (pERK in AM-38 cells) of the same compound?
A: 0.0414 µM

Q: And the “tolerability (on-treatment body weight changes)” value [11]?
A: well tolerated

Q: And the “animals exhibiting tumor regressions” value [12]?
A: 89%

Q: What about the EC50 (pERK in DBTRG-05MG cells) of the same compound?
A: 0.0605 µM

Q: What about the EC50 (pERK in COLO 800 cells) of the same compound?
A: 0.0995 µM

Q: And the AUC(0-t) ([13]; dosed orally BID (1.5-10 mg/kg))?
A: 4030 to 42100 ng·h/mL

Q: What about the AUC(0-t) ([13]; dosed orally QD (3-20 mg/kg)) of the same compound?
A: 5200 to 53700 ng·h/mL

Q: And the EC50 (pERK in IHH-4 cells)?
A: 0.0531 µM

Q: What about the EC50 (pERK in NCI-H1666 cells) of the same compound?
A: 0.0329 µM

Q: And the EC50 (pERK in IPC-298 cells)?
A: 0.267 µM

Q: And the AUC(0-t) [14]?
A: 11900 to 156000 ng·h/mL

Q: And the EC50 (pERK in SK-MEL-30 cells)?
A: 0.0959 µM

Q: What about the “average TGI” value ([4]; 10 mg/kg BID 28 days) of the same compound?
A: 13%

Q: What about the “average TGI” value ([4]; 30 mg/kg BID 28 days) of the same compound?
A: 135%

Q: And the ΔT/ΔC ([5]; 1.5 mg/kg BID PO 14 days)?
A: 34%

Q: What about the ΔT/ΔC [5, 15] of the same compound?
A: 21%
